Laboratory results reported in PubChem BioAssay AID1745844 (Carcinogenic Potency Database (CPDB), 2022).
Where “and” joins values, the source holds several entries; their conditions need not be identical. Identical values can stand only once. Calls of active or inactive are those of the source. No rule for the calls is given here.

Tested on: rodent lifetime carcinogenesis bioassay, tumor incidence TD50
Assay: carcinogenic potency in animals, long-term in vivo studies, CPDB compilation (AID 1745844)
[1] = mouse, strain B6C3F1, males, by gavage, site: any site (literature study), lesion: several types, types named in the paper, dosed 103 weeks, study length 104 weeks

Compound: C[C@]12CC[C@H]3C(=CCc4cc(OS(=O)(=O)O)ccc43)[C@@H]1CCC2=O
- carcinogen call (rat, strain Charles River CD (Sprague-Dawley), females, in feed, site: liver, lesion: one or several types, types not named, dosed 104 weeks, study length 104 weeks): negative (inactive)
- carcinogen call (rat, strain Charles River CD (Sprague-Dawley), males, in feed, site: liver, lesion: hepatoma, dosed 104 weeks, study length 104 weeks): negative (inactive)

Compound: Nc1nc(N)nc(-c2ccccc2)n1
- TD50 (mouse, strain CD-1 HaM/ICR, females, in feed, site: any site (literature study), lesion: several types, types named in the paper, dosed 77 weeks, study length 94 weeks): 932 mg/kg/day (inactive)
- TD50 (mouse, strain CD-1 HaM/ICR, females, in feed, site: liver, lesion: several types, types named in the paper, dosed 77 weeks, study length 94 weeks): 2040 mg/kg/day (inactive)
- TD50 (mouse, strain CD-1 HaM/ICR, females, in feed, site: lung, lesion: several types, types named in the paper, dosed 77 weeks, study length 94 weeks): 9340 mg/kg/day (inactive)
- TD50 (mouse, strain CD-1 HaM/ICR, males, in feed, site: any site (literature study), lesion: several types, types named in the paper, dosed 73 weeks, study length 94 weeks): 439 mg/kg/day (inactive)
- TD50 (mouse, strain CD-1 HaM/ICR, males, in feed, site: liver, lesion: several types, types named in the paper, dosed 73 weeks, study length 94 weeks): 3200 mg/kg/day (inactive)
- TD50 (mouse, strain CD-1 HaM/ICR, males, in feed, site: lung, lesion: several types, types named in the paper, dosed 73 weeks, study length 94 weeks): 304 mg/kg/day (inactive)
- TD50 (rat, strain Charles River CD (Sprague-Dawley), males, in feed, site: any site (literature study), lesion: several types, types named in the paper, dosed 77 weeks, study length 94 weeks): 16.3 mg/kg/day (inactive)
- carcinogen call (rat, strain Charles River CD (Sprague-Dawley), males, in feed, site: liver, lesion: several types, types named in the paper, dosed 77 weeks, study length 94 weeks): negative (inactive)

Compound: C=CC(OCC)OCC
- TD50 (rat, strain Fischer 344, females, in drinking water, site: liver, lesion: hyperplastic nodule, dosed 102 weeks, study length 130 weeks): 131 mg/kg/day
- TD50 (rat, strain Fischer 344, females, in drinking water, site: liver, lesion: several types, types named in the paper, dosed 102 weeks, study length 130 weeks): 123 mg/kg/day
- TD50 (rat, strain Fischer 344, males, in drinking water, site: liver, lesion: hepatocellular carcinoma, dosed 102 weeks, study length 130 weeks): 262 mg/kg/day
- TD50 (rat, strain Fischer 344, males, in drinking water, site: liver, lesion: hyperplastic nodule, dosed 102 weeks, study length 130 weeks): 266 mg/kg/day
- TD50 (rat, strain Fischer 344, males, in drinking water, site: liver, lesion: several types, types named in the paper, dosed 102 weeks, study length 130 weeks): 124 mg/kg/day

Compound: Cc1cnc(NC(=O)C2=C(O)c3ccccc3S(=O)(=O)N2C)s1
- carcinogen call (rat, strain Wistar, females, by gavage, site: stomach, lesion: one or several types, types not named, dosed 52 weeks, study length 52 weeks): negative (inactive)
- carcinogen call (rat, strain Wistar, males, by gavage, site: stomach, lesion: one or several types, types not named, dosed 52 weeks, study length 52 weeks): negative (inactive)

Compound: C=CCNNCC=C
- carcinogen call (mouse, strain Swiss albino, females, in drinking water, site: liver, lesion: angioma, dosed 83 weeks, study length 83 weeks): negative (inactive)
- carcinogen call (mouse, strain Swiss albino, females, in drinking water, site: liver, lesion: angiosarcoma, dosed 83 weeks, study length 83 weeks): negative (inactive)
- TD50 (mouse, strain Swiss albino, females, in drinking water, site: liver, lesion: hepatoma, dosed 83 weeks, study length 83 weeks): 409 mg/kg/day (inactive)
- TD50 (mouse, strain Swiss albino, females, in drinking water, site: lung, lesion: adenocarcinoma, dosed 83 weeks, study length 83 weeks): 78.3 mg/kg/day
- TD50 (mouse, strain Swiss albino, females, in drinking water, site: lung, lesion: adenoma, dosed 83 weeks, study length 83 weeks): 47.9 mg/kg/day
- TD50 (mouse, strain Swiss albino, females, in drinking water, site: lung, lesion: several types, types named in the paper, dosed 83 weeks, study length 83 weeks): 33.8 mg/kg/day
- carcinogen call (mouse, strain Swiss albino, males, in drinking water, site: liver, lesion: angioma, dosed 82 weeks, study length 82 weeks): negative (inactive)
- TD50 (mouse, strain Swiss albino, males, in drinking water, site: lung, lesion: adenocarcinoma, dosed 82 weeks, study length 82 weeks): 60 mg/kg/day
- TD50 (mouse, strain Swiss albino, males, in drinking water, site: lung, lesion: adenoma, dosed 82 weeks, study length 82 weeks): 35.4 mg/kg/day
- TD50 (mouse, strain Swiss albino, males, in drinking water, site: lung, lesion: several types, types named in the paper, dosed 82 weeks, study length 82 weeks): 33.9 mg/kg/day

Compound: CC(=O)CN(C)N=O
- TD50 (rat, strain MRC, females, by gavage, site: esophagus, lesion: several types, types named in the paper, dosed 67 weeks, study length 76 weeks): 0.16 mg/kg/day
- TD50 (rat, strain MRC, females, by gavage, site: liver, lesion: several types, types named in the paper, dosed 67 weeks, study length 76 weeks): 0.268 mg/kg/day
- TD50 (rat, strain MRC, females, by gavage, site: nasal and paranasal cavity, lesion: several types, types named in the paper, dosed 67 weeks, study length 76 weeks): 0.0167 mg/kg/day
- TD50 (rat, strain MRC, females, by gavage, site: pharynx, lesion: several types, types named in the paper, dosed 67 weeks, study length 76 weeks): 0.0758 mg/kg/day
- TD50 (rat, strain MRC, males, by gavage, site: esophagus, lesion: several types, types named in the paper, dosed 51 weeks, study length 58 weeks): 0.0642 mg/kg/day
- TD50 (rat, strain MRC, males, by gavage, site: liver, lesion: several types, types named in the paper, dosed 51 weeks, study length 58 weeks): 0.252 mg/kg/day
- TD50 (rat, strain MRC, males, by gavage, site: nasal and paranasal cavity, lesion: several types, types named in the paper, dosed 51 weeks, study length 58 weeks): 0.0178 mg/kg/day
- TD50 (rat, strain MRC, males, by gavage, site: nasopharynx, lesion: papilloma, dosed 51 weeks, study length 58 weeks): 0.942 mg/kg/day
- TD50 (rat, strain MRC, males, by gavage, site: pharynx, lesion: several types, types named in the paper, dosed 51 weeks, study length 58 weeks): 0.023 mg/kg/day

Compound: FC(F)(F)C(Cl)Cl
- TD50 (rat, strain Charles River CD (Sprague-Dawley), females, inhaled, site: liver, lesion: cholangiofibroma, dosed 105 weeks, study length 105 weeks): 22700 mg/kg/day
- TD50 (rat, strain Charles River CD (Sprague-Dawley), females, inhaled, site: liver, lesion: hepatocellular adenoma, dosed 105 weeks, study length 105 weeks): 20300 mg/kg/day
- TD50 (rat, strain Charles River CD (Sprague-Dawley), females, inhaled, site: pancreas, lesion: acinar-cell adenoma, dosed 105 weeks, study length 105 weeks): 92100 mg/kg/day
- TD50 (rat, strain Charles River CD (Sprague-Dawley), males, inhaled, site: liver, lesion: hepatocellular adenoma, dosed 105 weeks, study length 105 weeks): 13100 mg/kg/day
- TD50 (rat, strain Charles River CD (Sprague-Dawley), males, inhaled, site: pancreas, lesion: acinar-cell adenoma, dosed 105 weeks, study length 105 weeks): 1260 mg/kg/day
- TD50 (rat, strain Charles River CD (Sprague-Dawley), males, inhaled, site: pancreas, lesion: acinar-cell carcinoma, dosed 105 weeks, study length 105 weeks): 60800 mg/kg/day
- TD50 (rat, strain Charles River CD (Sprague-Dawley), males, inhaled, site: testis, lesion: interstitial-cell adenoma, dosed 105 weeks, study length 105 weeks): 9050 mg/kg/day

Compound: CCCCCl
- carcinogen call (mouse, strain B6C3F1, females, by gavage, site: any site (literature study), lesion: several types, types named in the paper, dosed 103 weeks, study length 104 weeks): negative (inactive)
- TD50 (mouse, strain B6C3F1, females, by gavage, site: liver, lesion: hepatocellular adenoma + hepatocellular carcinoma + neoplastic nodule, dosed 103 weeks, study length 105 weeks): 1380 mg/kg/day
- TD50 (mouse, strain B6C3F1, females, by gavage, site: lung, lesion: alveolar/bronchiolar adenoma + alveolar/bronchiolar carcinoma, dosed 103 weeks, study length 104 weeks): 13100 mg/kg/day
- TD50 (mouse, strain B6C3F1, females, by gavage, site: lung, lesion: alveolar/bronchiolar adenoma + alveolar/bronchiolar carcinoma, dosed 103 weeks, study length 105 weeks): 1160 mg/kg/day
- TD50 (mouse, strain B6C3F1, females, by gavage, site: lung, lesion: alveolar/bronchiolar carcinoma, dosed 103 weeks, study length 105 weeks): 1710 mg/kg/day (inactive)
- TD50 [1]: 423 mg/kg/day
- carcinogen call [1]: negative (inactive)
- TD50 (mouse, strain B6C3F1, males, by gavage, site: bone marrow + kidney/pelvis + liver + multiple organs + omentum + spleen + thorax, lesion: hemangiosarcoma, dosed 103 weeks, study length 104 weeks): 2830 mg/kg/day
- TD50 (mouse, strain B6C3F1, males, by gavage, site: liver, lesion: hepatocellular adenoma + hepatocellular carcinoma + neoplastic nodule, dosed 103 weeks, study length 104 weeks): 808 mg/kg/day and 623 mg/kg/day
- TD50 (mouse, strain B6C3F1, males, by gavage, site: liver, lesion: hepatocellular adenoma + hepatocellular carcinoma, dosed 103 weeks, study length 104 weeks): 808 mg/kg/day (inactive)
- TD50 (mouse, strain B6C3F1, males, by gavage, site: lung, lesion: alveolar/bronchiolar adenoma + alveolar/bronchiolar carcinoma, dosed 103 weeks, study length 104 weeks): 3190 mg/kg/day
- TD50 (rat, strain Fischer 344, females, by gavage, site: any site (literature study), lesion: several types, types named in the paper, dosed 103 weeks, study length 105 weeks): 100 mg/kg/day (inactive)
- TD50 (rat, strain Fischer 344, females, by gavage, site: liver, lesion: hepatocellular adenoma + hepatocellular carcinoma + neoplastic nodule, dosed 103 weeks, study length 105 weeks): 1510 mg/kg/day
- TD50 (rat, strain Fischer 344, males, by gavage, site: any site (literature study), lesion: several types, types named in the paper, dosed 103 weeks, study length 104 weeks): 40.5 mg/kg/day
- TD50 (rat, strain Fischer 344, males, by gavage, site: testis, lesion: interstitial-cell tumor, dosed 103 weeks, study length 104 weeks): 45.1 mg/kg/day (inactive)

Compound: O=S(=O)(O)c1ccc(N=Nc2c(O)ccc3cc(S(=O)(=O)O)ccc23)cc1
- carcinogen call (mouse, strain B6C3F1, females, in feed, site: any site (literature study), lesion: several types, types named in the paper, dosed 103 weeks, study length 104 weeks): negative (inactive)
- TD50 (mouse, strain B6C3F1, females, in feed, site: lung, lesion: alveolar/bronchiolar adenoma + alveolar/bronchiolar carcinoma, dosed 103 weeks, study length 104 weeks): 66400 mg/kg/day
- TD50 (mouse, strain B6C3F1, males, in feed, site: any site (literature study), lesion: several types, types named in the paper, dosed 103 weeks, study length 103 weeks): 17800 mg/kg/day
- TD50 (mouse, strain B6C3F1, males, in feed, site: liver, lesion: hepatocellular adenoma + hepatocellular carcinoma + neoplastic nodule, dosed 103 weeks, study length 103 weeks): 14200 mg/kg/day
- TD50 (mouse, strain B6C3F1, males, in feed, site: skin, lesion: fibrosarcoma + fibroma, dosed 103 weeks, study length 103 weeks): 37500 mg/kg/day (inactive)
- carcinogen call (mouse, strain Charles River CD (Sprague-Dawley), females, in feed, site: liver, lesion: one or several types, types not named, dosed 80 weeks, study length 80 weeks): negative (inactive)
- carcinogen call (mouse, strain Charles River CD (Sprague-Dawley), females, in feed, site: lung, lesion: adenoma, dosed 80 weeks, study length 80 weeks): negative (inactive)
- carcinogen call (mouse, strain Charles River CD (Sprague-Dawley), males, in feed, site: liver, lesion: one or several types, types not named, dosed 80 weeks, study length 80 weeks): negative (inactive)
- carcinogen call (mouse, strain Charles River CD (Sprague-Dawley), males, in feed, site: lung, lesion: adenoma, dosed 80 weeks, study length 80 weeks): negative (inactive)
- TD50 (rat, strain Fischer 344, females, in feed, site: any site (literature study), lesion: several types, types named in the paper, dosed 103 weeks, study length 104 weeks): 9060 mg/kg/day (inactive)
- TD50 (rat, strain Fischer 344, males, in feed, site: any site (literature study), lesion: several types, types named in the paper, dosed 103 weeks, study length 104 weeks): 11800 mg/kg/day (inactive)
- TD50 (rat, strain Fischer 344, males, in feed, site: liver, lesion: hepatocellular adenoma + hepatocellular carcinoma + neoplastic nodule, dosed 103 weeks, study length 104 weeks): 2520 mg/kg/day
- TD50 (rat, strain Not specified, females, in feed, site: any site (literature study), lesion: several types, types named in the paper, dosed 64 weeks, study length 64 weeks): 87.4 mg/kg/day (inactive)
- carcinogen call (rat, strain Not specified, females, in feed, site: liver, lesion: one or several types, types not named, dosed 64 weeks, study length 64 weeks): negative (inactive)
- TD50 (rat, strain Not specified, males, in feed, site: any site (literature study), lesion: several types, types named in the paper, dosed 64 weeks, study length 64 weeks): 14000 mg/kg/day (inactive)
- carcinogen call (rat, strain Not specified, males, in feed, site: liver, lesion: one or several types, types not named, dosed 64 weeks, study length 64 weeks): negative (inactive)
